Assays:
[1] = biological target: oligomeric amyloid-β / PrP^c interaction (Homo sapiens, UniProt P04156); type: binding
[2] = test system: ALS patients; test: Serum metabolites (HPLC) in ALS patients before/after five weekly LMW-DS 1.0 mg/kg s.c. (Example 12); type: in vivo, human; details: post- vs pre-treatment
Procedure: After an initial screening visit, patients had five weekly dosing of a single LMW-DS (ILB®, Tikomed AB, Viken, Sweden, WO 2016/076780) injection of 1.0 mg/kg body weight in saline into the subcutaneous fat of the lower abdomen.
Peripheral venous blood samples were been collected from the patients after at least 15 minutes of complete rest, using the standard tourniquet procedure, from the antecubital vein into a single VACUETTE® polypropylene tube containing serum separator and clot activator (Greiner-Bio One GmbH, Kremsmunster, Austria). After 30 minutes at room temperature, blood withdrawals were centrifuged at 1,890 × g for 10 min and the resulting serum samples were stored at -20° C. until analysis.
After defrost, an aliquot of 500 µl of each serum sample was supplemented with 1 ml of HPLC-grade acetonitrile, vortexed for 60 seconds, centrifuged at the maximum speed in a top-bench centrifuge to precipitate proteins. Supernatants were washed with large volumes of HPLC-grade chloroform to remove organic solvent, centrifuged and the upper aqueous phases were transferred in different tubes, clearly labeled to identify the sample and stored at -80° C. until analyzed to determine different water-soluble compounds.
A second aliquot of about 300 µl of each serum sample was light-protected and then processed to extract fat-soluble antioxidants using a method described in detail elsewhere (Lazzarino et al., Single-step preparation of selected biological fluids for the high performance liquid chromatographic analysis of fat-soluble vitamins and antioxidants. J Chromatogr A. 2017; 1527: 43-52.). Briefly, samples were supplemented with 1 ml of HPLC-grade acetonitrile, vigorously vortexed for 60 s and incubated at 37° C. for 1 h in a water bath under agitation, to allow the full extraction of lipid soluble compounds. Samples were then centrifuged at 20,690 × g for 15 min at 4 C to precipitate proteins and the clear supernatants were saved at -80° C. until the HPLC analysis of fat-soluble vitamins and antioxidants.
In deproteinized serum samples, the following water-soluble compounds were separated and quantified by HPLC, according to methods described elsewhere (Tavazzi et al., Simultaneous high performance liquid chromatographic separation of purines, pyrimidines, N-acetylated amino acids, and dicarboxylic acids for the chemical diagnosis of inborn errors of metabolism. Clin Biochem. 2005; 38: 997-1008; Romitelli et al., Comparison of nitrite/nitrate concentration in human plasma and serum samples measured by the enzymatic batch Griess assay, ion-pairing HPLC and ion-trap GC-MS: The importance of a correct removal of proteins in the Griess assay. J Chromatogr B Analyt Technol Biomed Life Sci. 2007; 851: 257-267; Amorini et al., Metabolic profile of amniotic fluid as a biochemical tool to screen for inborn errors of metabolism and fetal anomalies. Mol Cell Biochem. 2012; 359: 205-216): hypoxhantine, xanthine, uric acid, malondialdehyde (MDA), nitrite, nitrate, N-acetylaspartate (NAA), citrulline (CITR), alanine (ALA), and ornithine (ORN).
The following fat-soluble vitamins and antioxidants in deproteinized serum samples were separated and quantified by HPLC according to a method as previously described (Lazzarino et al., Cerebrospinal fluid ATP metabolites in multiple sclerosis. Mult Scler J. 2010; 16: 549-554): α-tocopherol (vitamin E) and γ-tocopherol. In addition to the abovementioned fat-soluble antioxidants and vitamins, also the concentration of total bilirubin was determined in serum samples.
Comparison of the Pre- and Post-treatment subgroups was performed by the two-tailed Student’s t-test for paired samples. The comparison of each subgroup with the group of control healthy subjects was carried out by the two-tailed non-parametric Mann-Whitney U-test for unpaired observations. Differences with p < 0.05 were considered statistically significant.

[3] = test system: ALS patients; test: ALSAQ-40 sub-scores in ALS patients, dextran sulfate 2 mg/kg s.c. weekly for ten weeks (Example 14); type: in vivo, human; details: after 10 weeks of treatment
Procedure: Dextran sulfate (ILB®, Tikomed AB, Viken, Sweden, WO 2016/076780) was administered at 2 mg/kg by […] subcutaneous injection once a week for ten weeks to 8 human patients suffering from ALS.
ALSAQ-40 was assessed pre-treatment and weekly thereafter for the 10 treatment weeks and for the visits at the follow-up period.

[4] = test system: SARS-CoV-2; details: incubation of SARS-CoV-2 with exogenous LMW-DS; cited from earlier work

Substance: sodium salt of dextran sulfate [LMW-DS]
- Competable binding (%) [1]: 85±4%
- Hill coefficient [1]: 1.00±0.21
- IC50 [1]: 0.42 ± 0.16 µg/mL
- serum ALA [2]: normalized
- serum CITR [2]: ameliorated
- serum MDA [2]: decreased
- serum NAA [2]: Significantly lower
- serum ORN/CITR ratio [2]: ameliorated
- serum nitrate [2]: decreased
- serum nitrite + nitrate [2]: decreased
- serum sum of oxypurines [2]: decreased
- serum total bilirubin [2]: decreased
- serum uric acid [2]: decreased
- serum α-tocopherol [2]: ameliorated
- serum γ-tocopherol [2]: ameliorated
- ALSAQ-40 ADL sub-score [3]: 44.4 ± 24.7
- ALSAQ-40 PM sub-score [3]: 22.7 ± 20.2
- decline of ALSAQ-40 ADL sub-score [3]: 18.6%
- decline of ALSAQ-40 PM sub-score [3]: 16%
- viral replication within ex vivo human lung tissue explants [4]: reduced viral replication

Source: patent publication US20230346827A1 (priority 2020, published 2023)
